# Measurements published in patent US7872067B2, “Amphiphilic polymer compositions and their use” (priority 2004, dated 2011).
# Test: Solubility of active compounds in distilled water
smiles,measurement,value
Fc1ccc([C@]2(Cn3cncn3)O[C@H]2c2ccccc2Cl)cc1 (racemic) [epoxyconazole],Solubility in distilled water,6.63 µg/mL
